According to patent US20230067910A1, “NOVEL COMPOUNDS FOR THE DIAGNOSIS, TREATMENT AND PREVENTION OF DISEASES ASSOCIATED WITH THE AGGREGATION OF ALPHA-SYNUCLEIN” (MODAG GMBH, priority 2019, published 2023):
Where two headings read alike, the source gives them in different places.

Key:
[1] = target: T1, alpha-synuclein (fibrils) (Homo sapiens, UniProt P37840); experiment: Competition binding assay, protocol 3a, reference ligand [3H]-compound 1, alpha-synuclein fibrils; details: reference ligand [3H]-compound 1 (1 nM)
T1 construct: made in house; host or cells: E. coli
Method: (§1) Alpha-synuclein and tau46 were purified from E. coli according to established protocols (Nuscher B, et al., J. Biol. Chem., 2004; 279(21):21966-75), Aβ1-42 was obtained from rPeptide, Watkinsville, Ga., USA. Fibrils were prepared by aggregation of recombinant protein via constant agitation. In detail, 70 μM of alpha-synuclein mixed with 100 mM NaCl in 50 mM Tris, pH 7.0+0.02% NaN3 were incubated at 1,400 rpm, 37° C. for 96 h. 10 μM of tau46 were incubated with 0.03 mg/ml heparin in 50 mM Tris, pH=7.0 at 1,000 rpm, 37° C. for 72 h. Aβ1-42 was solved in 20 mM NaPi, pH=8.0+0.2 mM EDTA+0.02% NaN3 (Deeg A A, et al., Biochim. Biophys. Acta, 2015; 1850(9): 1884-90; Goedert M, et al. Nature, 1996; 383(6600): 550-3).
(§2) A fixed concentration of sonicated human recombinant αSYN (200 nM/well) or tau46 (208 nM/well) fibrils diluted in phosphate buffered saline (PBS) were incubated in low binding plates (96 well micro test plate, Ratiolab GmbH, Dreieich, Germany) together with 1 nM [^3H]-compound 1 and 1:4 serial dilutions of the cold compound of interest starting from 1 μM diluted in 50 mM Tris-base, 10% EtOH, 0.05% Tween20, pH 7.4. For the calculation of Ki values the KD value of compound 1 toward sonicated human recombinant αSYN fibrils was set to 3 nM.
(§3) Assay plates were incubated under agitation at 37° C. for 2 h covered by plastic foil (Resealable tape, PerkinElmer, Waltham, Mass., USA). Prior to harvesting, a filter (Printed filtermat B, PerkinElmer, Waltham, Mass., USA) was incubated with 5 mg/mL polyethylenimine (PEI, Poly(ethyleneimine) solution, Sigma Aldrich Chemie GmbH, Taufkirchen, Germany) at 4° C. for 30 min. After incubation, bound and free ligands were separated by vacuum filtration using a harvester (Filtermate harvester, PerkinElmer, Waltham, Mass., USA). The filter was washed three times with buffer cooled to 4° C. and subsequently dried in the microwave for 2 min at medium power. The filter was sealed in a plastic bag (Sample bag for MicroBeta®, PerkinElmer, Waltham, Mass., USA) together with added scintillator (BETAPLATE SCINT, PerkinElmer, Waltham, Mass., USA). Accumulation of tritium was counted in a liquid scintillation counter (Wallac MicroBeta® TriLux, 1450 LSC & Luminescence Counter, PerkinElmer, Waltham, Mass., USA) immediately. Radioactivity was plotted against the increasing tritium-labeled compound or cold compound concentrations. Data points were fitted using nonlinear regression analysis in GraphPad Prism (GraphPad Software, Inc., Version 7.03, La Jolla, Calif., USA).
(§4) The fibril competition assay provides Ki values. Ki is a quantitative measure that represents the concentration of the non-radioactive tested compound (competitor ligand) required to replace 50% of a reference compound, in this case [H]-compound 1 (1 nM) or [H]-compound 2 (1 nM), which is bound to the target structures (1 nM), in our case recombinant alpha-synuclein and tau46 fibrils. This assay is suitable for a screening of non-radioactive ligands.

tau46 (fibrils) = target: T2, tau46 (fibrils) (Homo sapiens, UniProt P10636); experiment: Competition binding assay, protocol 3a, reference ligand [3H]-compound 1, tau46 fibrils; details: Experiment B, reference ligand [3H]-compound 1 (1 nM)
T2 construct: made in house; host or cells: E. coli
Method: as §1, §2, §3, §4

[2] = target: T3, alpha-synuclein (sonicated fibrils) (Homo sapiens, UniProt P37840); experiment: Modified competition binding assay, protocol 3b, reference ligand [3H]-compound 2; details: Table 5, reference ligand [3H]-compound 2 (1 nM)
T3 construct: made in house; host or cells: E. coli
Method: as §1
For competition binding experiments, a fixed concentration of recombinant αSYN fibrils (sonicated, 15 nM/well) was incubated with 1 nM [^3H]-compound 1 or [3H]-compound 2 and decreasing concentrations of a serial dilution of non-labeled competitor (serial dilution 1:4 or 1:3.5 or 1:3 providing the concentration ranges of non-labeled competitor 1 μM-[…] 1 μM-4 nM or 1 μM-[…], respectively) in 30 mM Tris-HCl, 10% ethanol, 0.05% Tween20, pH 7.4 in a total volume of 200 μL/well. Plates were incubated for 4.5 hours at RT covered by removable sealing tape (PerkinElmer, Waltham, Mass., USA).
Filtration and readout were performed as described for saturation binding assays. [^3H]-labeled ligand binding [in CMP] was plotted against increasing competitor concentrations and data points were fitted using non-linear regression analysis to calculate the IC50 and Ki values (GraphPad Software, Inc., Version 7.03, La Jolla (Calif.), USA). In the competition binding assay with sonicated recombinant αSYN fibrils, the calculation of Ki values was done based on KD values of 0.6 nM and 0.2 nM for compound 1 and compound 2, respectively.
as §4

[3] = system: H4 cells overexpressing alpha-synuclein hemi-Venus fusion constructs (V1S+SV2); experiment: Cellular model of aggregated alpha-synuclein-dependent toxicity, V1S+SV2 H4 cells; format: cell-based; details: 10 μM compound, 100 μM FeCl3, 0.75% DMSO, 48 h; for inhibition at 10 µM: read-out: Change in fraction of condensed nuclei (rel. to DMSO control) [%]
Method: (§5) To identify potential therapeutically useful effects, compounds were tested in two cellular models of aggregated alpha-synuclein-dependent toxicity in H4 cells. These cellular models allow for the inducible overexpression of alpha-synuclein hemi-Venus fusion constructs (V1S+SV2) or full-length alpha-synuclein (the model is described in detail in: Bartels M, Weckbecker D, Kuhn P H, Ryazanov S, Leonov A, Griesinger C, Lichtenthaler S F, Bötzel K, Giese A: Iron-mediated aggregation and toxicity in a novel neuronal cell culture model with inducible alpha-synuclein expression, Sci. Rep. 2019 Jun. 24; 9(1):9100). Moreover, addition of DMSO and FeCl3 promotes the aggregation of alpha-synuclein which is associated with an increase in cytotoxicity. The cell culture assay uses these effects by determining the change in the number of cells and the change in the percentage of condensed nuclei, which is indicative of apoptosis, in order to obtain information on which compounds show the most promising effects and thus might be therapeutically useful.
(§6) In these experiments, cells were incubated with 100 μM FeCl3 and 0.75% DMSO in the presence of 10 μM anle138c as a positive control, compounds 1 to 19 (10 μM), or DMSO as a negative control. After 48 h, the cells were imaged with an OPERA high-throughput imaging system and analyzed using Acapella software (Perkin Elmer). […] A reduction in the fraction of condensed nuclei (in the absence of a strong reduction in cell number) is indicative of a beneficial therapeutic effect.

[4] = system: H4 cells overexpressing full-length alpha-synuclein; experiment: Cellular model of aggregated alpha-synuclein-dependent toxicity, full-length alpha-synuclein H4 cells; format: cell-based; details: 10 μM compound, 100 μM FeCl3, 0.75% DMSO, 48 h; for inhibition at 10 µM: read-out: Change in fraction of condensed nuclei (rel. to DMSO control) [%]
Method: as §5, §6

[5] = target: T3, alpha-synuclein (sonicated fibrils); experiment: Modified competition binding assay, protocol 3b, reference ligand [3H]-compound 1; details: Table 4b, reference ligand [3H]-compound 1 (1 nM), read-out: Ki (nM) alpha-synuclein (sonicated fibrils)
Method: Fibrils were prepared by aggregation of recombinant protein via constant agitation. In detail, 70 μM of alpha-synuclein mixed with 100 mM NaCl in 50 mM Tris, pH 7.0+0.02% NaN3 were incubated at 1,400 rpm, 37° C. for 96 h. 10 μM of tau46 were incubated with 0.03 mg/ml heparin in 50 mM Tris, pH=7.0 at 1,000 rpm, 37° C. for 72 h.
Plates were incubated for 4.5 hours at RT covered by removable sealing tape (PerkinElmer, Waltham, Mass., USA).
Filtration and readout were performed as described for saturation binding assays.
The fibril competition assay provides Ki values. […] This assay is suitable for a screening of non-radioactive ligands.

[6] = target: T4, aggregated alpha-synuclein (Homo sapiens, UniProt P37840); experiment: Saturation binding assay, protocol 2a, alpha-synuclein fibrils; details: saturation assay protocol 2a, [3H]-labeled compound; read-out: KD [nM] for aggregated alpha-synuclein
T4 construct: made in house; host or cells: E. coli
Method: as §1
Sonicated αSYN (0.04 μM) or tau46 (0.4 μM) or Aβ1-42 (6 μM) fibrils diluted in PBS were incubated with decreasing concentrations of [^3H]-labeled compound (48 nM or 24 nM-[…]) in 50 mM Tris-base, 10% ethanol, 0.05% Tween20, pH 7.4. To determine non-specific binding, the respective unlabeled compound (400 nM) was added to a duplicate set of binding reactions.
as §3, with “2 h,” for “2 h”, “microwave oven” for “microwave”, “power. Melt-on scintillator sheets (MeltiLex™ B/HS, PerkinElmer, Waltham, Mass., USA) were molten into the filter using a heating plate set to 120° C. After solidifying at room temperature, the” for “power. The”, “MicroBeta®,” for “MicroBeta®, PerkinElmer, Waltham, Mass., USA) together with added scintillator (BETAPLATE SCINT,”
The fibril-binding saturation assay provides KD values. This assay is performed with directly radioactively labeled compounds (e.g. ^3H labeling). The saturation binding assays were performed using as target structures fibrillar aggregates produced from recombinant human alpha-synuclein, Aβ1-42, and tau46, respectively.

[7] = Experiment A, read-out: Ki (nM) alpha-synuclein (fibrils)
[8] = Experiment B, read-out: Ki (nM) alpha-synuclein (sonicated fibrils)

T2 sequence (P10636 1-412 isoform P10636-7): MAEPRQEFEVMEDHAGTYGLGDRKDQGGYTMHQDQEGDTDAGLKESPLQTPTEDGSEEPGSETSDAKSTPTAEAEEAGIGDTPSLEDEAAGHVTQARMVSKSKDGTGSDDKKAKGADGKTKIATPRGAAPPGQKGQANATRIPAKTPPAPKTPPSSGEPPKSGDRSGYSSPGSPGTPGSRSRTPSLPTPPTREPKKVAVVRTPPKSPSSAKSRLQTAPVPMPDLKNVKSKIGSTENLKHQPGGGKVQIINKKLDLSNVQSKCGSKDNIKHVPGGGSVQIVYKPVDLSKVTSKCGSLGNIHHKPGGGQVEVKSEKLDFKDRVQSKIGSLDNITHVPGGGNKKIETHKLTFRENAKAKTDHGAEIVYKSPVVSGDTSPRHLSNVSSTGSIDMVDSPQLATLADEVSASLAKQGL

| Ki [1, 7] | Ki [1, 8] | Ki (tau46 (fibrils)) | Ki [2] | Ki [5] | Kd [6] | Structure (SMILES) | Change in cell number (rel. to DMSO control) [%] [3] | inhibition at 10 µM [3] | Change in cell number (rel. to DMSO control) [%] [4] | inhibition at 10 µM [4] |
| --- | --- | --- | --- | --- | --- | --- | --- | --- | --- | --- |
| 34 nM | 25 nM | > 100 nM | 7.8 nM |  |  | Brc1cncc(-c2cc(-c3ccc4c(c3)OCO4)n[nH]2)c1 [Compound 10] | −32.8% | 50.3% | −35.3% | 60.2% |
| 2 nM | < 4 nM | 28 nM | 3.3 nM | 2.1 nM |  | Brc1cc(-c2cc(-c3ccc4c(c3)OCO4)n[nH]2)ccn1 [Compound 9, 4-[3-(1,3-benzodioxol-5-yl)-1H-pyrazol-5-yl]-2-bromopyridine] | −22.5% | 31.8% | −35.3% | 23.8% |
|  |  |  | 4.7 nM | 5.2 nM |  | Brc1ccnc(-c2cc(-c3ccc4c(c3)OCO4)n[nH]2)c1 [Compound 16, 2-[3-(1,3-benzodioxol-5-yl)-1H-pyrazol-5-yl]-4-bromopyridine] | −40.2% | -56.8% | −47.1% | -0.8% |
|  |  |  | 6.6 nM | 6.7 nM |  | Brc1cccc(-c2cc(-c3ccc4c(c3)OCO4)n[nH]2)n1 [Compound 15, 2-[3-(1,3-benzodioxol-5-yl)-1H-pyrazol-5-yl]-6-bromopyridine] | −11.3% | -23.1% | −11.2% | -20.3% |

Further lines, the molecule ahead of its results:

| Structure (SMILES) | Ki [1, 7] | Ki [1, 8] | Ki (tau46 (fibrils)) | Ki [2] | Ki [5] | Kd [6] | Change in cell number (rel. to DMSO control) [%] [3] | inhibition at 10 µM [3] | Change in cell number (rel. to DMSO control) [%] [4] | inhibition at 10 µM [4] |
| --- | --- | --- | --- | --- | --- | --- | --- | --- | --- | --- |
| CN(C)c1ccc(-c2cc(-c3ccnc(Br)c3)[nH]n2)cn1 [Compound 4, 5-[5-(2-bromopyridin-4-yl)-1H-pyrazol-3-yl]-N,N-dimethylpyridin-2-amine] | 8 nM | 13 nM | 31 nM | 0.7 nM |  |  | −36.9% | -33.7% | −48.6% | 30.1% |
| Brc1cc(-c2cc(-c3ccc(N4CCC4)cc3)n[nH]2)ccn1 [Compound 17, 4-{3-[4-(azetidin-1-yl)phenyl]-1H-pyrazol-5-yl}-2-bromopyridine] |  | 2 nM | 1 nM | 0.8 nM |  |  | −8.2% | 38.3% | −28.9% | 55% |
| Cn1nc(-c2ccc3c(c2)OCO3)cc1-c1ccnc(Br)c1 [Compound 18, 4-[3-(1,3-benzodioxol-5-yl)-1-methyl-1H-pyrazol-5-yl]-2-bromopyridine] |  |  |  |  |  | 126 nM | −11.8% | 19.9% | −21.3% | 18.2% |
| CN(C)c1ccc(-c2cc(-c3ccnc(F)c3)[nH]n2)cc1 [Compound 3, 4-[5-(2-fluoropyridin-4-yl)-1H-pyrazol-3-yl]-N,N-dimethylaniline] | < 0.1 nM | 3 nM | 4 nM | 0.95 nM |  |  | −11.3% | 31.9% | −34.8% | 79.1% |
